We go through two molecules from patent US20010016643A1, “Peptide derivatives” (priority 1995, published 2001).

Data set [1] in a line: Lipophilicity relative to human insulin (k′rel) by RP-HPLC. The note with it: LiChrosorb RP18 HPLC, isocratic elution, sodium phosphate buffer pH 7.3/acetonitrile. The data set is classed as physicochemical. As to the method:
The lipophilicity of peptides and peptide derivatives relative to human insulin, k′rel, was measured on a LiChrosorb RP18 (5 μm, 4×250 mm) HPLC column by isocratic elution at […] using mixtures of A) 0.1 M sodium phosphate buffer, pH 7.3, containing 10% acetonitrile, and B) 50% acetonitrile in water as eluents. The elution was monitored by following the UV absorption of the eluate at 214 nm. Void time, t0, was found by injecting 0.1 mM sodium nitrate. Retention time for human insulin, tinsulin was adjusted to at least 2t0 by varying the ratio between the A and B solutions. k′rel=(tderivative−t0 /(tinsulin−t0).

Data set [2] is described as follows: Blood glucose in rabbits pretreated with Insulin Actrapid after SC injection of glucagon or derivative. The data set is classed as in vivo.
Procedure: The resulting solution was sterilized by filtration and transferred to a vial.
Blood was sampled at times: −60, 0, 15, 30, 60, 120, 180 and 240 min, and the glucose concentration determined by the hexokinase method.

Residues, ends and D or L forms follow the SMILES beside them.

With `CCCC[C@H](NC=O)C(=O)N[C@@H](CC(C)C)C(=O)N[C@@H](Cc1ccccc1)C(=O)N[C@@H](CCCC)C(=O)N[C@@H](Cc1ccc(O)cc1)C(=O)N[C@@H](CCCCN)C(=O)O` [For-Nle-Leu-Phe-Nle-Tyr-Lys-OH] (HELM PEPTIDE1{[O=C[*:2]].[Nle].L.F.[Nle].Y.K}$$$$V2.0), in data set [1], the “lipophilicity relative to human insulin, k′rel” value turned out to be 2.3.
With “Lys^30 (N^ε-decanoyl) glucagon [Example 6]”, the blood glucose concentration came to 79 mg glucose/100 ml in data set [2] (15 min after SC injection); 93 mg glucose/100 ml in data set [2] (30 min after SC injection); 114 mg glucose/100 ml in data set [2] (60 min after SC injection); 112 mg glucose/100 ml in data set [2] (120 min after SC injection); 116 mg glucose/100 ml in data set [2] (180 min after SC injection); 110 mg glucose/100 ml in data set [2] (240 min after SC injection). Also, the blood glucose concentration in data set [2] (time 0 min (SC injection of test substance)) was 51 mg glucose/100 ml; in data set [2] (time −60 min (at Insulin Actrapid 2 IU/animal, before test substance)), 94 mg glucose/100 ml. Also, the “blood glucose raising effect” value in data set [2] (SC, compared with glucagon) is listed as “retained in Lys^30(Nε-decanoyl) glucagon but with a prolonged action”.
